Test results taken from PubChem BioAssay AID330 (DTP/NCI, 2004).
Where “and” joins values, the source holds several entries; their conditions need not be identical. Equal entries are not always repeated. Toxic doses and inconclusive results are not listed.

System: P388 leukemia ip, CD2F1 mice, survival T/C
Test: NCI In Vivo Anticancer Drug Screen. Data for tumor model P388 Leukemia (intraperitoneal) in CD2F1 (CDF1) mice
Conditions: endpoint: median survival time, higher = longer survival
Method in brief: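 Mice carrying the transplanted tumor received test compound or vehicle. Survival was recorded in each group, and the value is the treated-group measurement divided by that of the vehicle-treated control group.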

[1] = dose: 60.0 mg/kg/injection, schedule: Q01DX005 (ip), vehicle: Klucel (hydroxypropylcellulose) (HPC)
[2] = dose: 120.0 mg/kg/injection, schedule: Q01DX005 (ip), vehicle: Klucel (hydroxypropylcellulose) (HPC)
[3] = dose: 240.0 mg/kg/injection, schedule: Q01DX005 (ip), vehicle: Klucel (hydroxypropylcellulose) (HPC)
[4] = dose: 50.0 mg/kg/injection, schedule: Q01DX009 (ip), vehicle: Klucel (hydroxypropylcellulose) (HPC)
[5] = dose: 100.0 mg/kg/injection, schedule: Q01DX009 (ip), vehicle: Klucel (hydroxypropylcellulose) (HPC)
[6] = dose: 200.0 mg/kg/injection, schedule: Q01DX009 (ip), vehicle: Klucel (hydroxypropylcellulose) (HPC)
[7] = dose: 400.0 mg/kg/injection, schedule: Q01DX009 (ip), vehicle: Klucel (hydroxypropylcellulose) (HPC)
[8] = dose: 60.0 mg/kg/injection, schedule: Q01DX005 (ip), vehicle: saline with Tween-80
[9] = dose: 120.0 mg/kg/injection, schedule: Q01DX005 (ip), vehicle: saline with Tween-80
[10] = dose: 240.0 mg/kg/injection, schedule: Q01DX005 (ip), vehicle: saline with Tween-80
[11] = dose: 50.0 mg/kg/injection, schedule: Q01DX009 (ip), vehicle: saline with Tween-80
[12] = dose: 100.0 mg/kg/injection, schedule: Q01DX009 (ip), vehicle: saline with Tween-80
[13] = dose: 200.0 mg/kg/injection, schedule: Q01DX009 (ip), vehicle: saline with Tween-80
[14] = dose: 50.0 mg/kg/injection, schedule: Q01DX005 (ip), vehicle: saline with Tween-80
[15] = dose: 100.0 mg/kg/injection, schedule: Q01DX005 (ip), vehicle: saline with Tween-80
[16] = dose: 200.0 mg/kg/injection, schedule: Q01DX005 (ip), vehicle: saline with Tween-80
[17] = dose: 100.0 mg/kg/injection, schedule: Q01DX009 (ip), vehicle: saline
[18] = dose: 200.0 mg/kg/injection, schedule: Q01DX009 (ip), vehicle: saline
[19] = dose: 12.5 mg/kg/injection, schedule: Q01DX009 (ip), vehicle: saline
[20] = dose: 50.0 mg/kg/injection, schedule: Q01DX009 (ip), vehicle: saline
[21] = dose: 100.0 mg/kg/injection, schedule: Q04DX002 (ip), vehicle: Klucel (hydroxypropylcellulose) (HPC)
[22] = dose: 200.0 mg/kg/injection, schedule: Q04DX002 (ip), vehicle: Klucel (hydroxypropylcellulose) (HPC)

In the case of O=C(CCCCl)NN=C(c1ccccc1)c1ccccc1, the T/C (dose: 42.0 mg/kg/injection, schedule: Q01DX009 (ip), vehicle: saline with Tween-80) is reported as 100 % of control, the T/C (dose: 84.0 mg/kg/injection, schedule: Q01DX009 (ip), vehicle: saline with Tween-80) is reported as 97 % of control and the T/C (dose: 168.0 mg/kg/injection, schedule: Q01DX009 (ip), vehicle: saline with Tween-80) is reported as 95 % of control.

With C=C1C(=O)OC2C(OC(C)=O)CCCC12 (stereo not given) the T/C [1] was 112 % of control, the T/C [2] was 103 % of control and the T/C [3] was 108 % of control.

Cc1ccc(C(C)C)c(OC(=O)Nc2ccc(Cl)cc2)c1 was tested, and the T/C [4] was 100 % of control, the T/C [5] was 87 % of control and the T/C [6] was 95 % of control. For the same compound, the T/C [7] was 92 % of control.

With CSc1cccc(NC(=O)N2CCN(C)CC2)c1 the T/C [4] was 89 % of control, the T/C [5] was 91 % of control and the T/C [6] was 94 % of control.

In the case of O=C(O)C1CCCCC1c1c2ccc(=O)c(O)c-2oc2c(O)c(O)ccc12 (stereo not given), the T/C (dose: 15.0 mg/kg/injection, schedule: Q01DX005 (ip), vehicle: saline with Tween-80) is reported as 102 % of control, the T/C (dose: 30.0 mg/kg/injection, schedule: Q01DX005 (ip), vehicle: saline with Tween-80) is reported as 102 % of control and 105 % of control and the T/C [8] is reported as 110 % of control and 111 % of control and 119 % of control. The T/C [9] was 107 % of control and 111 % of control and 112 % of control and the T/C [10] was 121 % of control.

O=C1OC(Oc2ccccc2)c2cc3c(cc21)OCO3 (stereo not given) was tested, and the T/C [8] was 90 % of control, the T/C [9] was 90 % of control and the T/C [10] was 99 % of control.

In the case of COc1ccc2c(c1)c(=O)c(C(=O)O)cn2CCCOc1ccc([N+](=O)[O-])cc1, the T/C [1] is reported as 88 % of control, the T/C [2] is reported as 93 % of control and the T/C [3] is reported as 89 % of control.

O=[N+]([O-])c1cc(Cl)ccc1Cl was tested, and the T/C [11] was 100 % of control, the T/C [12] was 100 % of control and the T/C [13] was 91 % of control.

C=C(C)Cn1c(=O)n(CC)c(=O)c2[nH]c(Cl)nc21 was tested, and the T/C (dose: 16.0 mg/kg/injection, schedule: Q01DX009 (ip), vehicle: Klucel (hydroxypropylcellulose) (HPC)) was 108 % of control, the T/C (dose: 32.0 mg/kg/injection, schedule: Q01DX009 (ip), vehicle: Klucel (hydroxypropylcellulose) (HPC)) was 107 % of control and the T/C [4] was 95 % of control. For the same compound, the T/C (dose: 64.0 mg/kg/injection, schedule: Q01DX009 (ip), vehicle: Klucel (hydroxypropylcellulose) (HPC)) was 117 % of control, the T/C [5] was 100 % of control and the T/C [6] was 101 % of control.

In the case of O=NN(CCCl)C(=O)Nc1c[nH]c2ccccc12, the T/C (dose: 25.0 mg/kg/injection, schedule: Q01DX009 (ip), vehicle: Klucel (hydroxypropylcellulose) (HPC)) is reported as 157 % of control, the T/C [4] is reported as 159 % of control and 166 % of control and the T/C [5] is reported as 166 % of control and 176 % of control. For the same compound, the T/C [6] was 166 % of control and 175 % of control and the T/C [7] was 166 % of control and 176 % of control.

In the case of FC(F)(F)c1cccc(-n2nnnc2Oc2ccc(-c3ccccc3)cc2)c1, the T/C [14] is reported as 97 % of control, the T/C [15] is reported as 101 % of control and the T/C [16] is reported as 90 % of control.

In the case of O=c1[nH]nc(NCCCCO)c2ccccc12, the T/C [11] is reported as 95 % of control, the T/C [12] is reported as 95 % of control and the T/C [13] is reported as 91 % of control.

For Cn1nnn(Cc2ccccc2)/c1=N/C(=S)Nc1ccccc1, the T/C (dose: 100.0 mg/kg/injection, schedule: Q01DX001 (ip), vehicle: Klucel (hydroxypropylcellulose) (HPC)) was 99 % of control, the T/C (dose: 200.0 mg/kg/injection, schedule: Q01DX001 (ip), vehicle: Klucel (hydroxypropylcellulose) (HPC)) was 95 % of control and the T/C (dose: 400.0 mg/kg/injection, schedule: Q01DX001 (ip), vehicle: Klucel (hydroxypropylcellulose) (HPC)) was 86 % of control.

With Cc1cc(NC(=S)SCc2ccc(F)cc2)ccc1Br the T/C [4] was 112 % of control and 122 % of control, the T/C (dose: 50.0 mg/kg/injection, schedule: Q01DX009 (ip), vehicle: suspension in saline) was 93 % of control and the T/C [5] was 114 % of control and 115 % of control. For the same compound, the T/C (dose: 100.0 mg/kg/injection, schedule: Q01DX009 (ip), vehicle: suspension in saline) was 94 % of control and the T/C (dose: 200.0 mg/kg/injection, schedule: Q01DX009 (ip), vehicle: suspension in saline) was 109 % of control.

C/C(=N\O)c1cc(Br)cc([N+](=O)[O-])c1O was tested, and the T/C (dose: 50.0 mg/kg/injection, schedule: Q01DX005 (ip), vehicle: Klucel (hydroxypropylcellulose) (HPC)) was 100 % of control and the T/C (dose: 100.0 mg/kg/injection, schedule: Q01DX005 (ip), vehicle: Klucel (hydroxypropylcellulose) (HPC)) was 94 % of control.

In the case of CCCC(C)Br (stereo not given), the T/C [17] is reported as 109 % of control, the T/C [18] is reported as 114 % of control and the T/C (dose: 400.0 mg/kg/injection, schedule: Q01DX009 (ip), vehicle: saline) is reported as 115 % of control.

For CCN(CC)CCCCCCNc1cc(OC)cc2cccnc12, the T/C [19] was 86 % of control, the T/C (dose: 25.0 mg/kg/injection, schedule: Q01DX009 (ip), vehicle: saline) was 96 % of control and the T/C [20] was 90 % of control.

In the case of CC(c1ccccc1)/[N+]([O-])=N\O (stereo not given), the T/C (dose: 3.0 mg/kg/injection, schedule: Q01DX005 (ip), vehicle: Klucel + Tween-80) is reported as 100 % of control, the T/C (dose: 6.0 mg/kg/injection, schedule: Q01DX005 (ip), vehicle: Klucel + Tween-80) is reported as 90 % of control and the T/C (dose: 12.0 mg/kg/injection, schedule: Q01DX005 (ip), vehicle: Klucel + Tween-80) is reported as 97 % of control. For the same compound, the T/C (dose: 24.0 mg/kg/injection, schedule: Q01DX005 (ip), vehicle: Klucel + Tween-80) was 98 % of control.

In the case of O=c1[nH]c2cc([N+](=O)[O-])ccc2nc1/C=C(\O)c1cccc2ccccc12, the T/C (dose: 30.0 mg/kg/injection, schedule: Q01DX005 (ip), vehicle: Klucel + Tween-80) is reported as 91 % of control, the T/C (dose: 60.0 mg/kg/injection, schedule: Q01DX005 (ip), vehicle: Klucel + Tween-80) is reported as 87 % of control and 94 % of control and the T/C (dose: 120.0 mg/kg/injection, schedule: Q01DX005 (ip), vehicle: Klucel + Tween-80) is reported as 86 % of control. For the same compound, the T/C (dose: 240.0 mg/kg/injection, schedule: Q01DX005 (ip), vehicle: Klucel + Tween-80) was 88 % of control.

O=C1OP2(c3ccccc3)(OC(=O)c3ccccc32)c2ccccc21 was tested, and the T/C (dose: 12.5 mg/kg/injection, schedule: Q01DX009 (ip), vehicle: saline with Tween-80) was 98 % of control and 94 % of control, the T/C (dose: 25.0 mg/kg/injection, schedule: Q01DX009 (ip), vehicle: saline with Tween-80) was 99 % of control and 92 % of control and the T/C [11] was 90 % of control and 95 % of control. For the same compound, the T/C [12] was 95 % of control and the T/C [13] was 88 % of control.

In the case of Oc1c(Cl)cc(Cl)cc1/C=N\NC(=S)Nc1ccccc1, the T/C [21] is reported as 97 % of control and the T/C [22] is reported as 95 % of control.

In the case of C[CH2][Ge]([CH2]C)[CH2]C.C[CH2][Ge]([Cl])[CH2]C, the T/C [20] is reported as 100 % of control, the T/C [17] is reported as 100 % of control and the T/C [18] is reported as 91 % of control.

O=S1(=O)Cc2c3c(c4c(c2C1)CS(=O)(=O)C4)CS(=O)(=O)C3 was tested, and the T/C (dose: 50.0 mg/kg/injection, schedule: Q04DX002 (ip), vehicle: Klucel (hydroxypropylcellulose) (HPC)) was 94 % of control, the T/C [21] was 96 % of control and the T/C [22] was 98 % of control.

In the case of CN(C)NP(=O)(NN(C)C)Oc1ccccc1, the T/C (dose: 50.0 mg/kg/injection, schedule: Q01DX005 (ip), vehicle: saline) is reported as 97 % of control, the T/C (dose: 100.0 mg/kg/injection, schedule: Q01DX005 (ip), vehicle: saline) is reported as 99 % of control and the T/C (dose: 200.0 mg/kg/injection, schedule: Q01DX005 (ip), vehicle: saline) is reported as 103 % of control.

For CC1(C(=O)O)CCCC2(C)C3=C(CCCC3)CCC12 (stereo not given), the T/C [12] was 104 % of control, the T/C [13] was 100 % of control and the T/C (dose: 400.0 mg/kg/injection, schedule: Q01DX009 (ip), vehicle: saline with Tween-80) was 95 % of control.

With CCCCCCCCCC[N+]1(CC)CCCCC1 the T/C (dose: 3.12 mg/kg/injection, schedule: Q01DX009 (ip), vehicle: saline) was 119 % of control, the T/C (dose: 6.25 mg/kg/injection, schedule: Q01DX009 (ip), vehicle: saline) was 121 % of control and the T/C [19] was 105 % of control.

For c1ccc(CN2COc3c4c(c5ccccc5c3C2)CN(Cc2ccccc2)CO4)cc1, the T/C [14] was 90 % of control, the T/C [15] was 103 % of control and the T/C [16] was 93 % of control.

In the case of COc1ccc(OC)c(N(CCN2C(=O)c3ccccc3C2=O)C(=O)C2CCC(=O)C2C)c1 (stereo not given), the T/C [8] is reported as 99 % of control and the T/C [9] is reported as 87 % of control.
